Results published in patent US20160368919A1, “NOVEL PYRIDINE PYRAZINONES AS BET-FAMILY BROMODOMAIN INHIBITORS” (Pfizer Inc., priority 2015, published 2016).

What was measured:
[1] = target: T1, BRD4 BD1 (Homo sapiens, UniProt O60885); experiment: BRD4 BD1 Fluorescence Polarization (FP) competition binding assay; conditions: BRD4 BD1 40 nM, probe PFI-411FP 2 nM
T1 construct: His-tagged BRD4 BD1 (44-160); made in house
Description: Compound binding to BRD4 BD1 was assessed with a FP competition binding assay. […] All assay components were diluted in 50 mM HEPES pH 7.4 containing 0.08% bovine serum albumin (assay buffer). To start the assay, 8 μL of BRD4 BD1 was added to each well of a low volume 384-well black flat bottom microtiter plate (Corning 3820) containing 4 μl of various concentrations of test compound (each plate also contained positive and negative control wells to define the upper and lower limits of the assay signal). After addition of BRD4 BD1, the assay plate was incubated at room temperature (RT, 20° C.). After 15 minutes, 4 μL of PFI-411FP was added to each well and the assay plate was placed in the dark at RT. The final assay concentration (FAC) of PFI-411FP was 2 nM, the FAC of BRD4 BD1 was 40 nM, the FAC of test compound ranged from 120 to 0.0012 μM and the FAC of DMSO was 0.4%. After 60 min, polarization values were measured with an Envision 2103 multilabel reader (Perkin Elmer) using a Cy5 dual enhanced mirror and excitation at 620 nm and emission at 688 nm. The percent (%) effect was calculated for each concentration of test compound and was relative to the amount of polarization signal produced by the positive and negative control wells contained within each assay plate. The concentrations and % effect values for test compounds were plotted versus each other with a proprietary curve fitting program using a four-parameter logistic dose response equation and the concentration of compound required for 50% effect (IC50) was determined. The Ki values of competitive inhibitors were calculated using the equation described by Nikolovska-Coleska et al. (Development and optimization of a binding assay for the XIAP BIR3 domain using fluorescence polarization. Analytical Biochemistry (2004) 332: 261-273).

[2] = test system: LPS-induced IL-6 production in human whole blood; experiment: IL-6 human whole blood (HWB) assay, LPS-stimulated, HTRF detection; format: cell-based; conditions: 1 ng/ml LPS, 4 hours
Description: Compound effect on IL-6 production was determined using lipopolysaccharide (LPS)-stimulated human whole blood and an HTRF (Homogeneous Time-Resolved Fluorescence) IL-6 detection kit (Human IL6 HTRF Assay CisBio 62IL6PEC). HWB was collected by venous puncture from healthy donors, transferred to a 50 ml polypropylene tube containing sodium heparin (14.3 units per mL of HWB) and then placed in a 37° C. water bath until use. To start the assay, 80 μL of heparin-treated HWB containing 1 ng/ml of LPS (equivalent to LPS ˜EC80 with regard to stimulation of IL-6 production in HWB under these assay conditions) was added to each well of a 384-well, sterile, endotoxin-free, polypropylene plate (Greiner 781281) containing 160 nL of various concentrations of test compound (each plate also contained positive and negative control wells to define the upper and lower limits of the assay signal). The plate was then placed in a thermoshaker incubator set to 370C (Boekel 270440). The final assay concentration (FAC) of test compound ranged from 60 to 0.0006 μM and the FAC of DMSO was 0.2%. After 4 hours, the assay plate was removed from the incubator and centrifuged at 700×g for 10 minutes. 5 μL of the resulting upper plasma layer was removed from each well and diluted 1:2 with 1×Dulbecco's phosphate buffered saline (DPBS). 5 μL of this diluted plasma was then transferred to a white 384-well low volume assay plate (Greiner 784080) containing 5 μL of combined anti-IL-6-Cryptate and anti-IL-6-XL665 detection antibodies (per manufacturer's protocol). The plate was then sealed with a Top Seal (Perkin Elmer 6005185) and incubated at room temperature (RT, 20° C.). After 16-18 hrs (overnight), the HTRF assay signal was read on an Envision 2103 plate reader using a Lance Delfia Dual/Bias mirror TRF laser excitation and emission was measured at 665 nm and 615 nm respectively. The percent (%) effect was calculated for each concentration of test compound and was relative to the amount of HTRF signal produced by the positive and negative control wells contained within each assay plate. The concentrations and % effect values for test compounds were plotted versus each other with a proprietary curve fitting program using a four-parameter logistic dose response equation and the concentration of compound required for 50% effect (IC50) was determined.

| SMILES | IC50 [1] [nM] | IC50 [2] [nM] |
| --- | --- | --- |
| CCC(=O)N(C)c1ccc2nc(NCCC(=O)O)c(=O)n(C3C(CC)CCC3CC)c2n1 (stereo not drawn) [Example 13, N-{4-(2,5-diethylcyclopentyl)-6-[methyl(propanoyl)amino]-3-oxo-3,4-dihdropyrido[2,3-b]pyrazin-2-yl}-beta-alanine] | 111 | 846 |
| CC[C@@H](c1ccccc1)n1c(=O)c(NCCC(=O)O)nc2ccc(N(C)C(=O)NC)nc21 [Example 9, N-{6-[methyl(methylcarbamoyl)amino]-3-oxo-4-[(1S)-1-phenylpropyl]-3,4-dihydropyrido[2,3-b]pyrazin-2-yl}-beta-alanine] | 150 | 3830 |
| CC[C@@H](c1ccccc1)n1c(=O)c(NCCC(=O)O)nc2ccc(N(C)C(=O)C(C)C)nc21 [Example 6, N-{6-[methyl(2-methylpropanoyl)amino]-3-oxo-4-[(1S)-1-phenylpropyl]-3,4-dihydropyrido[2,3-b]pyrazin-2-yl}-beta-alanine] | 155 | 1420 |
| CCC(=O)N(C)c1ccc2nc(NC)c(=O)n(C(COC)COC)c2n1 [Example 20, N-(4-(1,3-dimethoxypropan-2-yl)-2-(methylamino)-3-oxo-3,4-dihydropyrido[2,3-b]pyrazin-6-yl)-N-methylpropionamide] | 1070 | 1460 |

Continued, values first:

| IC50 [1] [nM] | IC50 [2] [nM] | SMILES |
| --- | --- | --- |
| 89.8 | 2560 | CC[C@@H](c1ccccc1)n1c(=O)c(NCCC(=O)O)nc2ccc(-c3c(C)noc3C)nc21 [Example 44, N-{6-(3,5-dimethyl-1,2-oxazol-4-yl)-3-oxo-4-[(1S)-1-phenylpropyl]-3,4-dihydropyrido[2,3-b]pyrazin-2-yl}-beta-alanine] |
| 294 | 63700 | Cc1noc(C)c1-c1ccc2nc(NCCc3nnn[nH]3)c(=O)n([C@@H](C)c3ccccc3)c2n1 [Example 51, 6-(3,5-dimethyl-1,2-oxazol-4-yl)-4-[(1S)-1-phenylethyl]-2-{[2-(1H-tetrazol-5-yl)ethyl]amino}pyrido[2,3-b]pyrazin-3(4H)-one] |
| 159 | 919 | CNC(=O)CNc1nc2ccc(-c3c(C)noc3C)nc2n([C@@H](C)c2ccccc2OC)c1=O [Example 57, N^2-{6-(3,5-dimethyl-1,2-oxazol-4-yl)-4-[(1S)-1-(2-methoxyphenyl)ethyl]-3-oxo-3,4-dihydropyrido[2,3-b]pyrazin-2-yl}-N-methylglycinamide] |
| 99.4 | 2640 | Cc1noc(C)c1-c1ccc2nc(NCCC(=O)O)c(=O)n([C@H](c3ccccn3)C(C)C)c2n1 [Example 54, N-{6-(3,5-dimethyl-1,2-oxazol-4-yl)-4-[(1S)-2-methyl-1-(pyridin-2-yl)propyl]-3-oxo-3,4-dihydropyrido[2,3-b]pyrazin-2-yl}-beta-alanine] |
| 149 | 366 | CC[C@@H](c1ccccc1)n1c(=O)c(NCCC(=O)NC)nc2ccc(N(C)C(=O)C3CCO3)nc21 (stereo partly drawn) [Example 28, N-methyl-N-(2-{[3-(methylamino)-3-oxopropyl]amino}-3-oxo-4-[(1S)-1-phenylpropyl]-3,4-dihydropyrido[2,3-b]pyrazin-6-yl)oxetane-2-carboxamide] |
| 355 | 6220 | CC[C@@H](COC)n1c(=O)c(NCCC(=O)O)nc2ccc(-c3c(C)noc3C)nc21 [Example 46, N-{6-(3,5-dimethyl-1,2-oxazol-4-yl)-4-[(2S)-1-methoxybutan-2-yl]-3-oxo-3,4-dihydropyrido[2,3-b]pyrazin-2-yl}-beta-alanine] |
| 195 | 746 | COc1ccccc1[C@H](C)n1c(=O)c(NCCN2CCOCC2)nc2ccc(-c3c(C)noc3C)nc21 [Example 35, 6-(3,5-dimethyl-1,2-oxazol-4-yl)-4-[(1S)-1-(2-methoxyphenyl)ethyl]-2-{[2-(morpholin-4-yl)ethyl]amino}pyrido[2,3-b]pyrazin-3(4H)-one] |
